Some targets named below: M.tb PGDH G316V (Mycobacterium tuberculosis, UniProt P9WNX3, G315V); M.tb PGDH G317V (Mycobacterium tuberculosis, UniProt P9WNX3, G316V); M.tb PGDH G318V (Mycobacterium tuberculosis, UniProt P9WNX3, G317V); M.tb PGDH G316, 317V (Mycobacterium tuberculosis, UniProt P9WNX3, G315V/G316V); M.tb PGDH G317, 318V (Mycobacterium tuberculosis, UniProt P9WNX3, G316V/G317V); M.tb PGDH G316, 318V (Mycobacterium tuberculosis, UniProt P9WNX3, G315V/G317V); M.tb PGDH Y461A (Mycobacterium tuberculosis, UniProt P9WNX3, Y460A); M.tb PGDH D463A (Mycobacterium tuberculosis, UniProt P9WNX3, D462A); M.tb PGDH N481A (Mycobacterium tuberculosis, UniProt P9WNX3, N480A).

What all share (assay type): biochemical

The values below come from PMC2551328 (Biochemistry, 2008).

As usually defined, the Ki is a measure of affinity in units of concentration, obtained from inhibition or displacement. High values mean a looser hold on the target, low ones a stronger hold on the target. For orientation: Km means the substrate concentration at which the rate is half of its maximum. As usually defined, the kcat is the maximal rate divided by the concentration of active sites. For the compound `O=C(O)C(=O)COP(=O)(O)O` [HPAP, hydroxypyruvic acid phosphate], the Ki is 2230 ± 190 µM on M.tb PGDH G316V; 1110 ± 148 µM on M.tb PGDH G317V; 1920 ± 437 µM on M.tb PGDH G318V; 380 ± 45 µM on M.tb PGDH G316, 317V; 1620 ± 402 µM at M.tb PGDH G317, 318V; 220 ± 35 µM on M.tb PGDH G316, 318V. For the same compound, the results for the Ki at M.tb PGDH Y461A, at M.tb PGDH D463A and on M.tb PGDH N481A were 420 ± 65 µM, 1090 ± 165 µM and 2320 ± 337 µM, respectively. Moreover, the Km at M.tb PGDH G316V amounted to 114 ± 4 µM; on M.tb PGDH G317V, 165 ± 9 µM; on M.tb PGDH G318V, 203 ± 23 µM; at M.tb PGDH G316, 317V, 610 ± 95 µM; at M.tb PGDH G317, 318V it was 220 ± 43 µM; on M.tb PGDH G316, 318V, 470 ± 43 µM. The Km on M.tb PGDH Y461A amounted to 270 ± 60 µM; at M.tb PGDH D463A, 140 ± 10 µM; at M.tb PGDH N481A, 120 ± 15 µM. In addition, the kcat was 1111 ± 30 s⁻¹ at M.tb PGDH G316V; 2111 ± 119 s⁻¹ at M.tb PGDH G317V; 2349 ± 177 s⁻¹ at M.tb PGDH G318V; 2805 ± 310 s⁻¹ on M.tb PGDH G316, 317V; 605 ± 27 s⁻¹ at M.tb PGDH G317, 318V; 2827 ± 197 s⁻¹ on M.tb PGDH G316, 318V. Further, the kcat on M.tb PGDH Y461A was determined as 2754 ± 300 s⁻¹; at M.tb PGDH D463A, 720 ± 89 s⁻¹; on M.tb PGDH N481A, 603 ± 77 s⁻¹.
Take `N[C@@H](CO)C(=O)O` [L-serine, reference compound]: the “Hill Coefficient” value on M.tb PGDH G316V amounted to 1.6 ± 0.1; at M.tb PGDH G317V it was 1.5 ± 0.1; at M.tb PGDH G318V, 2.5 ± 0.1; on M.tb PGDH G316, 317V it was 1.7 ± 0.1; on M.tb PGDH G317, 318V, 1.9 ± 0.1; on M.tb PGDH G316, 318V, 1.9 ± 0.1. Also, the results for the “Hill Coefficient” value at M.tb PGDH Y461A and at M.tb PGDH D463A were 1.7 ± 0.1 and 1.4 ± 0.1, respectively. Besides, the “decrease in sensitivity to serine” value on M.tb PGDH G318V is given as “about 5 fold”.
